# Publication PMC10647531, “Effects of Icariin and Its Metabolites on GPCR Regulation and MK-801-Induced Schizophrenia-Like Behaviors in Mice” (Molecules, 2023)
# Legend:
# MK-801-treated mice [1] = assay: Social novelty preference test (SNPT); assay type: in vivo
# From the text: (§1) The mice were housed in the University Animal Care Unit for one week prior to the experiment. Each cage housed 10 mice, and all mice had unlimited access to water and food. […] The Institutional Animal Care and Use Committee of Kyung Hee University approved the mouse experimental protocols (approval number: KHUASP-22-530).
# Three chambers in a rectangular Plexiglas box (w × d × h: 94 × 28 × 30 cm) were used for the SNPT. The left, right, and central chambers were all joined together by openings (w × d: 6 × 28 cm). On the center of the left and right chambers, an iron muntin cylinder lockup (h × d: 11 × 12 cm) was installed. A test mouse was allowed to interact with another mouse that was trapped in the cylinder lockup. A test mouse was placed in the middle chamber during the acclimatization trial (trial-1, 10 min) and was allowed to freely explore all three compartments through the apertures. A mouse that was younger than the test mouse was placed in a lockup in the first sociability experiment (trial-2) following trial-1, while the other lockup remained. The test mouse was taken to the center compartment and allowed to wander around. The second sociability trial (trial-3) was performed immediately after trial-2. A new mouse that was younger than the test mouse was put in the empty cell during trial-3 (10 min), and the test mouse was put into an empty lockup and allowed to explore.
# MK-801-treated mice [2] = assay: Acoustic startle response task (ASRT), prepulse inhibition; assay type: in vivo
# Experimental: as §1
# The ASRT was conducted using SR-LAB startle chambers (San Diego Instruments, San Diego, CA, USA), consisting of a box that can lightly confine the mice, a system that can generate sound stimuli regularly, equipment that can measure animal movements, a program that can digitize the measured stimuli, and a source and speaker that can provide sound. The ASRT sessions included three trials: non-stimulus (PPI-1), startle (pulse alone, PPI-2), and prepulse (prepulse + pulse, PPI-3). The PPI-1 trial consisted of background noise only. The PPI-2 trial consisted of constant noise (80−120 dB, five sections) for 40 ms. The PPI-3 trial consisted of a noise prepulse ([…], which are 3, 6, 12, and 16 dB above the background noise, respectively) for 20 ms, a delay for 80 ms, and a 120 dB startle pulse for 40 ms. The percentage score for PPI was calculated as follows: % PPI = [(PPI-2 – PPI-3)/(PPI-2)] × 100(%).
# M4 mACh receptor (M4R) [3] = molecular target: T1, M4 mACh receptor (M4R) (Homo sapiens, UniProt P08173); assay: cAMP agonist assay (M4R); details: 100 μM
# T1 sequence (P08173 1-479): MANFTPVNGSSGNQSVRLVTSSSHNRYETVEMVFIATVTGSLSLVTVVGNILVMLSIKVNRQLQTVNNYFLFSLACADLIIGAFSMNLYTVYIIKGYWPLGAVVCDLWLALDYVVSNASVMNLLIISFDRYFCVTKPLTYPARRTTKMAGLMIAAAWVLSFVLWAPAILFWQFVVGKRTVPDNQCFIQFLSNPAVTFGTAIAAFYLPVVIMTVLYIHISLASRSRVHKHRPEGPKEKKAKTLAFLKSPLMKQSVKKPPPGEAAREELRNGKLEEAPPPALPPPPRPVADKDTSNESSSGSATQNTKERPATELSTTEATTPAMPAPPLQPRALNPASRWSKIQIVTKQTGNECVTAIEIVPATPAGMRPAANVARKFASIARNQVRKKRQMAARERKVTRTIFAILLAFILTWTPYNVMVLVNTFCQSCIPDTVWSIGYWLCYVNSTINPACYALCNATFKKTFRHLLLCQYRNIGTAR
# [4] = system: ferrous-treated rat brain homogenates; assay: Lipid peroxidation assay (TBARS); assay type: biochemical; details: rat brain homogenate; mean ± SD of triplicate experiments
# Experimental: Whole brain homogenates from male Sprague-Dawley rats (6 months old) were prepared according to procedures described in previous studies. […] After 1 h of incubation at 37 °C, the stop solution was added to the reaction mixture. After incubation in boiling water for 1 h, the reaction mixture was extracted with normal butanol and centrifuged (1300× g for 10 min).
# hMAO-B = molecular target: T2, hMAO-B (Homo sapiens, UniProt P27338); assay: In vitro hMAO-inhibitory assay (MAO-Glo), hMAO-B; assay type: biochemical; details: mean ± SD of triplicate experiments
# T2 sequence (P27338 1-520): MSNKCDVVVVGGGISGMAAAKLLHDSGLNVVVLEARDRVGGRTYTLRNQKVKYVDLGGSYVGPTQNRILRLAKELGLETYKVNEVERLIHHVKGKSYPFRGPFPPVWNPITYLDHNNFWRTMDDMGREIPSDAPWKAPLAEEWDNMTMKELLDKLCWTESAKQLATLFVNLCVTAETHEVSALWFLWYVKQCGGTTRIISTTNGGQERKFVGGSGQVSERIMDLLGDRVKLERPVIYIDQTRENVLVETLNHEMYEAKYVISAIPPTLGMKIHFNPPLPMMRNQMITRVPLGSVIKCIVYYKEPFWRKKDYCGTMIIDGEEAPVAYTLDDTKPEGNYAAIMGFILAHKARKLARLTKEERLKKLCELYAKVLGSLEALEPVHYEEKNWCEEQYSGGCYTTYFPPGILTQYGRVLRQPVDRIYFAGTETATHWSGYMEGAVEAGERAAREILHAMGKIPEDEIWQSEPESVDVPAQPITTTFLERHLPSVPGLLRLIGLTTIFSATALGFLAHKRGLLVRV
# From the text: (§2) A homogeneous luminescent assay using the MAO-Glo™ assay kit (Promega, Madison, WI, USA) was used to evaluate the hMAO-inhibitory activity of icariin and its metabolites according to the manufacturer’s protocol.
# hMAO-A = molecular target: T3, hMAO-A (Homo sapiens, UniProt P21397); assay: In vitro hMAO-inhibitory assay (MAO-Glo), hMAO-A; assay type: biochemical; details: mean ± SD of triplicate experiments
# T3 sequence (P21397 1-527): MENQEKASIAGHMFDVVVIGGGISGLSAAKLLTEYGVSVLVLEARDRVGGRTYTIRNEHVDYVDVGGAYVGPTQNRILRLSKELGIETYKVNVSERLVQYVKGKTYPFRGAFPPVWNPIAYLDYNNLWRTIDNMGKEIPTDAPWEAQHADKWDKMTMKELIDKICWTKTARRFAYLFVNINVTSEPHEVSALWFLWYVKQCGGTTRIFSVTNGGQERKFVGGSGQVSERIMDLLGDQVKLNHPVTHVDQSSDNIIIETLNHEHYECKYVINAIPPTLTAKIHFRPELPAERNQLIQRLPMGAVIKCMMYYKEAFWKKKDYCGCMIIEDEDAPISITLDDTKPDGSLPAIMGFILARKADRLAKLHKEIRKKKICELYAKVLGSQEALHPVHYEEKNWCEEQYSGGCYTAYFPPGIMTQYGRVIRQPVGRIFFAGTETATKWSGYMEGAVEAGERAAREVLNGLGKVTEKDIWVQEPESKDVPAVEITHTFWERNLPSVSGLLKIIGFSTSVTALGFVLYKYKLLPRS
# From the text: as §2
# [5] = molecular target: T4, vasopressin 1A receptor (V1AR) (Homo sapiens, UniProt P37288); assay type: cell-based; details: 100 μM; stimulus AVP (10 nM)
# T4 construct: host or cells: CHO-K1
# T4 sequence (P37288 whole entry): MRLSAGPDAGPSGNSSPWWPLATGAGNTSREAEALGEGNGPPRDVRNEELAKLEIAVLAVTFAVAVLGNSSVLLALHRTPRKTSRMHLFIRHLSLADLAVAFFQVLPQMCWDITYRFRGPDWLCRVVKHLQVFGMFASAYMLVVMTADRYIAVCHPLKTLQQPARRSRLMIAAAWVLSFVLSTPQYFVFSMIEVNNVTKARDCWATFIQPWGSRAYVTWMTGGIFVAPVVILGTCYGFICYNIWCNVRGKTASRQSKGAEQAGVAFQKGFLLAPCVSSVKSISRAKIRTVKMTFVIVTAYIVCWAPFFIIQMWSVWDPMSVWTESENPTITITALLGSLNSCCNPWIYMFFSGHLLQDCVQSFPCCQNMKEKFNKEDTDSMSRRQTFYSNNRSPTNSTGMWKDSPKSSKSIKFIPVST
# From the text: a All products including cell-line and reagents were provided by Cerep (Cel le L'Evescault, France).
# Human D3R = molecular target: T5, Human D3R (Homo sapiens, UniProt P35462); assay type: binding; details: 50 μM
# T5 construct: expressed in transfected cells; host or cells: CHO-K1 (membrane homogenates)
# T5 sequence (P35462 whole entry): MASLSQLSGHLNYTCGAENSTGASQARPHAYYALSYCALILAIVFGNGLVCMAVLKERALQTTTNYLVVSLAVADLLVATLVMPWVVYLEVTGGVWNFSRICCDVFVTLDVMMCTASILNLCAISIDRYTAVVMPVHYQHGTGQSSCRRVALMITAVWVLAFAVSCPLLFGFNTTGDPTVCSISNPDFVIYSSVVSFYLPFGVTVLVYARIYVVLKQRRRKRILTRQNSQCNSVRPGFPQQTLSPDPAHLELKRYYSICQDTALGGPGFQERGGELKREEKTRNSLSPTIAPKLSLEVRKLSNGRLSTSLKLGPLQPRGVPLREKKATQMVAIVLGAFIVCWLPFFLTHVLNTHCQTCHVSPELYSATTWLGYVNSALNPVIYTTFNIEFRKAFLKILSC
# Experimental: (§3) Next, 10 μM (f.c.) (+)-butaclamol (for D3R) and 1 μM (f.c.) atropine (for M2R) were used to detect nonspecific binding in the respective assays. The binding affinity of a test compound was calculated as the inhibition (%) of control (radioligand)-specific binding.
# M4 mACh receptor (M4R) [6] = molecular target: T1, M4 mACh receptor (M4R); assay: cAMP antagonist assay (M4R); details: read-out: Antagonist effect (%) M4 (inhibition of the control agonist response)
# [7] = molecular target: T6, muscarinic acetylcholine M2 receptor (M2R) (Homo sapiens, UniProt P08172); assay: Radioligand binding assay ([3H]AF-DX 384, CHO-M2R membrane homogenates); set-up: host or cells: CHO-K1
# T6 sequence (P08172 1-466): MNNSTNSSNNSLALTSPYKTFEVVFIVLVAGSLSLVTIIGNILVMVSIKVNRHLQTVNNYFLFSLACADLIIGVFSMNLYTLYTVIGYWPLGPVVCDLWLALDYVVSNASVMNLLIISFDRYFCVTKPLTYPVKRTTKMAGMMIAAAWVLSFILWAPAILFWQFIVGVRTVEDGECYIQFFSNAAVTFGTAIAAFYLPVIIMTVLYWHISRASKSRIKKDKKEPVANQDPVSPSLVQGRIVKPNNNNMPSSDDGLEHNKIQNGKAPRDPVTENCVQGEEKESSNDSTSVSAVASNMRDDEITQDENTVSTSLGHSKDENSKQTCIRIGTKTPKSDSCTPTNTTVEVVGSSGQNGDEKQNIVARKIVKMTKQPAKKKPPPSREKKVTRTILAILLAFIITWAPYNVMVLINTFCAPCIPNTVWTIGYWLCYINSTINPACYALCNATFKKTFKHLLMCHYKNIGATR
# Experimental: as §3
# [8] = molecular target: T6, muscarinic acetylcholine M2 receptor (M2R); details: 100 μM; control agonist 300 nM ACh
# [9] = set-up: method as in PMID 31844591; details: cited from earlier work
molecule,measurement,setting,value
C[C@]12N[C@H](Cc3ccccc31)c1ccccc12 [MK-801],amount of time spent in the chamber with the unknown mouse,"MK-801-treated mice [1]; alone, 0.2 mg/kg, i.p., compared with control group",considerably reduced
same,acoustic startle amplitude,"MK-801-treated mice [2]; 0.2 mg/kg alone (i.p.), at 120 dB",significantly increased
same,prepulse inhibition (PPI),"MK-801-treated mice [2]; 0.2 mg/kg alone (i.p.), at +3, +6, +12, and +16 dB above the background noise (70 dB)",decreased
"COc1ccc(-c2oc3c(CC=C(C)C)c(O[C@@H]4O[C@H](CO)[C@@H](O)[C@H](O)[C@H]4O)cc(O)c3c(=O)c2O[C@@H]2O[C@@H](C)[C@H](O)[C@@H](O)[C@H]2O)cc1 [Icariin, icariin]",agonist effect assay on M4R,M4 mACh receptor (M4R) [3],opposite effect to that of icariside II
same,IC50,[4],301 ± 2.16 µM
same,effect on MK-801-induced social interaction deficits,"MK-801-treated mice [1]; 3 and 10 mg/kg, p.o.",significantly reversed
same,effect on MK-801-induced PPI deficits,"MK-801-treated mice [2]; 3 and 10 mg/kg, p.o., at +12 and +16 dB above the background noise",significantly reversed
same,IC50,hMAO-B,> 500 µM
same,IC50,hMAO-A,422 ± 7.07 µM
"Cc1c(C)c2c(c(C)c1O)CCC(C)(C(=O)O)O2 (centres unmarked) [Trolox, reference compound]",IC50,[4],32.3 ± 3.21 µM
icariside II,agonist effect assay on M4R,M4 mACh receptor (M4R) [3],has an agonist effect
same,IC50,[4],70.4 ± 2.04 µM
same,effect on MK-801-induced social interaction deficits,"MK-801-treated mice [1]; 1, 3, and 10 mg/kg, p.o.",significantly reversed
same,antagonist effect on V1AR,[5],42.0%
same,effect on MK-801-induced PPI deficits,"MK-801-treated mice [2]; 1, 3, and 10 mg/kg, p.o.",no significant effects
same,radioligand binding to the target binding site (D3R),Human D3R,almost completely blocked
"COc1ccc(-c2oc3c(CC=C(C)C)c(O)cc(O)c3c(=O)c2O)cc1 [Icaritin, icaritin]",IC50,[4],81.3 ± 3.09 µM
same,effect on MK-801-induced social interaction deficits,"MK-801-treated mice [1]; 3 and 10 mg/kg, p.o.",significantly reversed
same,inhibition at 100 µM,M4 mACh receptor (M4R) [6],32.4%
same,effect on MK-801-induced PPI deficits,"MK-801-treated mice [2]; 1, 3, and 10 mg/kg, p.o.",no significant effects
same,Radioligand specific binding (%) (M2R),[7]; 100 μM,81.95%
same,Radioligand specific binding (%) (M2R),[7]; 150 μM,64.00%
same,blocked radioligand binding to the target binding site (M2R),[7]; 150 μM,36%
same,Antagonist effect (%) M2,[8],54.55%
same,IC50,hMAO-B,> 500 µM
same,blood-brain barrier penetration,[9],could penetrate the blood-brain barrier (BBB) readily
same,IC50,hMAO-A,> 500 µM
"O=C1CCc2ccc(OCCCCN3CCN(c4cccc(Cl)c4Cl)CC3)cc2N1 [aripiprazole, reference compound]",effect on MK-801-induced social interaction deficits,"MK-801-treated mice [1]; 1 mg/kg, i.p.",significantly reversed
same,effect on MK-801-induced PPI deficits,"MK-801-treated mice [2]; 1 mg/kg, i.p., at +12 and +16 dB above the background noise",significantly reversed
